Patent US11596639B2, “Substituted indole Mcl-1 inhibitors” (Vanderbilt University, priority 2016, dated 2023)

How the values were obtained:
Mcl-1 = Mcl-1 (Homo sapiens (Human), UniProt Q07820); assay: TR-FRET binding assay, FITC-Bak peptide and MBP-tagged Mcl-1; conditions: read-out: Ki for Inhibition of Mcl-1 by TR-FRET assay
Method: Compounds are diluted in DMSO in a 16-point, semilog serial dilution scheme. […] The plate was mixed and incubated for 3 hours at room temperature. […] TR-FRET signal is plotted and IC50 and Ki values are calculated in the same manner as the fluorescence polarization anisotropy based competition assays.

[1] = tested on: H929 human cancer cell lines; assay: Cellular viability / proliferation (Cell TiterGlo, 72 h); assay type: cell-based; conditions: Homo sapiens, NCI-H929, 72 h, read-out: GI50 on cellular proliferation of H929 human cancer cell lines, H929 cells, 72 h, Cell TiterGlo, 10% FBS
Summary of the method: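 1,000 cells/well, 10% FBS medium; compound added at 24 h, 2-fold dilutions from 50 μM top, DMSO <1% final. 72 h exposure, CellTiterGlo 30 min RT dark, luminescence read. IC50 by 4-parameter fit.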

Chain of Mcl-1 (Q07820 172-327): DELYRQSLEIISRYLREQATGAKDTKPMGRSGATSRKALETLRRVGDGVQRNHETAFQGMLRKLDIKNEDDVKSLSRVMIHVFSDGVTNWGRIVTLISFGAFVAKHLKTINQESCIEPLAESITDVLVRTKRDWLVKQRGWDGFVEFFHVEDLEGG

| SMILES | Ki (Mcl-1) [nM] | GI50 [1] [nM] |
| --- | --- | --- |
| COCCn1c(C(=O)O)cc2c(OC)ccc(N3C[C@@H](C)n4c(c(CCCOc5cc(C)c(Cl)c(C)c5)c5ccc(Cl)c(-c6c(C)nn(C)c6C)c54)C3=O)c21 [Example 587, (R)-7-(7-chloro-10-(3-(4-chloro-3,5-dimethylphenoxy)propyl)-4-methyl-1-oxo-6-(1,3,5-trimethyl-1H-pyrazol-4-yl)-3,4-dihydropyrazino[1,2-a]indol-2(1H)-yl)-4-methoxy-1-(2-methoxyethyl)-1H-indole-2-carboxylic acid] | < 0.2 | < 200 |
| Cc1cc(OCCCc2c3n(c4c(-c5c(C)nn(C)c5C)c(Cl)ccc24)[C@H](C)CN(c2cn(C)c4ccc(-c5nn[nH]n5)nc24)C3=O)cc(C)c1Cl [Example 687, (R)-7-chloro-10-(3-(4-chloro-3,5-dimethylphenoxy)propyl)-4-methyl-2-(1-methyl-5-(2H-tetrazol-5-yl)-1H-pyrrolo[3,2-b]pyridin-3-yl)-6-(1,3,5-trimethyl-1H-pyrazol-4-yl)-3,4-dihydropyrazino[1,2-a]indol-1(2H)-one] | < 0.2 | 330 |
| Cc1cc(OCCCc2c3n(c4c(-c5c(C)ncnc5C)c(Cl)ccc24)[C@H](C)CN(c2cn(C)c4ccc(-c5ncn(C)n5)cc24)C3=O)cc(C)c1Cl [Example 574, (R)-7-Chloro-10-(3-(4-chloro-3,5-dimethylphenoxy)propyl)-6-(4,6-dimethylpyrimidin-5-yl)-4-methyl-2-(1-methyl-5-(1-methyl-1H-1,2,4-triazol-3-yl)-1H-indol-3-yl)-3,4-dihydropyrazino[1,2-a]indol-1(2H)-one] | 2.4 | 270 |
| COc1cc(N2C[C@@H](C)n3c(c(CCCOc4cc(C)c(Cl)c(C)c4)c4ccc(Cl)c(-c5c(C)ncnc5C)c43)C2=O)c2c(c1)cc(C(=O)O)n2C [Example 535, (R)-7-(7-Chloro-10-(3-(4-chloro-3,5-dimethylphenoxy)propyl)-6-(4,6-dimethylpyrimidin-5-yl)-4-methyl-1-oxo-3,4-dihydropyrazino[1,2-a]indol-2(1H)-yl)-5-methoxy-1-methyl-1H-indole-2-carboxylic acid] | < 0.2 | 280 |
| Cc1cc(OCCCc2c3n(c4c(-c5c(C)nn(C)c5C)c(Cl)ccc24)[C@H](C)CN(c2cc(NCc4ccccn4)cc4c(C(=O)O)cn(C)c24)C3=O)cc(C)c1Cl [Example 523, (R)-7-(7-Chloro-10-(3-(4-chloro-3,5-dimethylphenoxy)propyl)-4-methyl-1-oxo-6-(1,3,5-trimethyl-1H-pyrazol-4-yl)-3,4-dihydropyrazino[1,2-a]indol-2(1H)-yl)-1-methyl-5-((pyridin-2-ylmethyl)amino)-1H-indole-3-carboxylic acid] | 0.5 | 890 |
| COCCOc1cc(N2C[C@@H](C)n3c(c(CCCOc4cc(C)c(Cl)c(C)c4)c4ccc(Cl)c(-c5c(C)nn(C)c5C)c43)C2=O)c2c(c1)c(C(=O)O)cn2C [Example 654, (R)-7-(7-chloro-10-(3-(4-chloro-3,5-dimethylphenoxy)propyl)-4-methyl-1-oxo-6-(1,3,5-trimethyl-1H-pyrazol-4-yl)-3,4-dihydropyrazino[1,2-a]indol-2(1H)-yl)-5-(2-methoxyethoxy)-1-methyl-1H-indole-3-carboxylic acid] | 0.34 | 340 |
| COc1ccc(N2C[C@@H](C)n3c(c(CCCOc4cc(C)c(Cl)c(C)c4)c4ccc(Cl)c(-c5c(C)ncnc5C)c43)C2=O)c2c1cc(C(=O)O)n2Cc1cc(C)ccn1 [Example 520, (R)-7-(7-chloro-10-(3-(4-chloro-3,5-dimethylphenoxy)propyl)-6-(4,6-dimethylpyrimidin-5-yl)-4-methyl-1-oxo-3,4-dihydropyrazino[1,2-a]indol-2(1H)-yl)-4-methoxy-1-((4-methylpyridin-2-yl)methyl)-1H-indole-2-carboxylic acid] | < 0.2 | < 200 |
| C=Cc1cccc(Cn2c(C(=O)O)cc3cc(C)cc(N4C[C@@H](C)n5c(c(CCCOc6cc(C)c(Cl)c(C)c6)c6ccc(Cl)c(-c7c(C)nn(C)c7C)c65)C4=O)c32)n1 [Example 517, (R)-7-(7-Chloro-10-(3-(4-chloro-3,5-dimethylphenoxy)propyl)-4-methyl-1-oxo-6-(1,3,5-trimethyl-1H-pyrazol-4-yl)-3,4-dihydropyrazino[1,2-a]indol-2(1H)-yl)-5-methyl-1-((6-vinylpyridin-2-yl)methyl)-1H-indole-2-carboxylic acid] | 0.36 | 760 |
| Cc1cc(OCCCc2c3n(c4c(-c5c(C)cc(OCCN6CCCC6)cc5C)c(Cl)ccc24)[C@H](C)CN(c2cn(C)c4ccc(C(=O)O)cc24)C3=O)cc(C)c1Cl [Example 508, (R)-3-(7-chloro-10-(3-(4-chloro-3,5-dimethylphenoxy)propyl)-6-(2,6-dimethyl-4-(2-(pyrrolidin-1-yl)ethoxy)phenyl)-4-methyl-1-oxo-3,4-dihydropyrazino[1,2-a]indol-2(1H)-yl)-1-methyl-1H-indole-5-carboxylic acid] | 2.4 | 450 |
| Cc1cc(OCCCc2c3n(c4c(-c5c(C)nn(C)c5C)c(Cl)ccc24)[C@H](C)CN(c2cn(CC(=O)N(C)C)c4ccc(-c5ncccn5)cc24)C3=O)cc(C)c1Cl [Example 637, (R)-2-(3-(7-Chloro-10-(3-(4-chloro-3,5-dimethylphenoxy)propyl)-4-methyl-1-oxo-6-(1,3,5-trimethyl-1H-pyrazol-4-yl)-3,4-dihydropyrazino[1,2-a]indol-2(1H)-yl)-5-(pyrimidin-2-yl)-1H-indol-1-yl)-N,N-dimethylacetamide] | 1.3 | 530 |
| COc1ccc(N2C[C@@H](C)n3c(c(CCCOc4cc(C)c(Cl)c(C)c4)c4ccc(Cl)c(-c5c(C)ncnc5C)c43)C2=O)c2c1cc(C(=O)O)n2Cc1cccc(C)n1 [Example 477, (R)-7-(7-Chloro-10-(3-(4-chloro-3,5-dimethylphenoxy)propyl)-6-(4,6-dimethylpyrimidin-5-yl)-4-methyl-1-oxo-3,4-dihydropyrazino[1,2-a]indol-2(1H)-yl)-4-methoxy-1-((6-methylpyridin-2-yl)methyl)-1H-indole-2-carboxylic acid] | < 0.2 | < 200 |
| COCCn1cc(C(=O)O)c2cc(OCCN(C)C)cc(N3C[C@@H](C)n4c(c(CCCOc5cc(C)c(Cl)c(C)c5)c5ccc(Cl)c(-c6c(C)nn(C)c6C)c54)C3=O)c21 [Example 671, (R)-7-(7-chloro-10-(3-(4-chloro-3,5-dimethylphenoxy)propyl)-4-methyl-1-oxo-6-(1,3,5-trimethyl-1H-pyrazol-4-yl)-3,4-dihydropyrazino[1,2-a]indol-2(1H)-yl)-5-(2-(dimethylamino)ethoxy)-1-(2-methoxyethyl)-1H-indole-3-carboxylic acid] | 0.32 | 890 |
| COCCn1cc(N2C[C@@H](C)n3c(c(CCCOc4cc(C)c(Cl)c(C)c4)c4ccc(Cl)c(-c5c(C)nn(C)c5C)c43)C2=O)c2cc(-c3ncn(CC4CN(C(C)=O)C4)n3)ccc21 [Example 618, (R)-2-(5-(1-((1-Acetylazetidin-3-yl)methyl)-1H-1,2,4-triazol-3-yl)-1-(2-methoxyethyl)-1H-indol-3-yl)-7-chloro-10-(3-(4-chloro-3,5-dimethylphenoxy)propyl)-4-methyl-6-(1,3,5-trimethyl-1H-pyrazol-4-yl)-3,4-dihydropyrazino[1,2-a]indol-1(2H)-one] | 3.8 | 360 |
| COCc1cc(N2C[C@@H](C)n3c(c(CCCOc4cc(C)c(Cl)c(C)c4)c4ccc(Cl)c(-c5c(C)nn(C)c5C)c43)C2=O)c2c(c1)cc(C(=O)O)n2C [Example 607, (R)-7-(7-chloro-10-(3-(4-chloro-3,5-dimethylphenoxy)propyl)-4-methyl-1-oxo-6-(1,3,5-trimethyl-1H-pyrazol-4-yl)-3,4-dihydropyrazino[1,2-a]indol-2(1H)-yl)-5-(methoxymethyl)-1-methyl-1H-indole-2-carboxylic acid] | < 0.2 | < 200 |
| COCCn1cc(N2C[C@@H](C)n3c(c(CCCOc4cc(C)c(Cl)c(C)c4)c4ccc(Cl)c(-c5c(C)nn(C)c5C)c43)C2=O)c2cc(-c3ncccn3)ccc21 [Example 548, (R)-7-Chloro-10-(3-(4-chloro-3,5-dimethylphenoxy)propyl)-2-(1-(2-methoxyethyl)-5-(pyrimidin-2-yl)-1H-indol-3-yl)-4-methyl-6-(1,3,5-trimethyl-1H-pyrazol-4-yl)-3,4-dihydropyrazino[1,2-a]indol-1(2H)-one] | 0.94 | 610 |
| Cc1cc(OCCCc2c3n(c4c(-c5c(C)ncnc5C)c(Cl)ccc24)[C@H](C)CN(c2cn(C)c4ccc(-c5ncccn5)cc24)C3=O)cc(C)c1Cl [Example 642, (R)-7-Chloro-10-(3-(4-chloro-3,5-dimethylphenoxy)propyl)-6-(4,6-dimethylpyrimidin-5-yl)-4-methyl-2-(1-methyl-5-(pyrimidin-2-yl)-1H-indol-3-yl)-3,4-dihydropyrazino[1,2-a]indol-1(2H)-one] | 3 | 790 |
| Cc1cc(N2C[C@@H](C)n3c(c(CCCOc4cc(C)c(Cl)c(C)c4)c4ccc(Cl)c(-c5c(C)nn(C)c5C)c43)C2=O)c2c(c1)cc(C(=O)O)n2Cc1cccc(C#N)n1 [Example 557, (R)-7-(7-chloro-10-(3-(4-chloro-3,5-dimethylphenoxy)propyl)-4-methyl-1-oxo-6-(1,3,5-trimethyl-1H-pyrazol-4-yl)-3,4-dihydropyrazino[1,2-a]indol-2(1H)-yl)-1-((6-cyanopyridin-2-yl)methyl)-5-methyl-1H-indole-2-carboxylic acid] | < 0.2 | 820 |
